Experimental data taken from publication doi:10.1101/2022.09.19.508609v1 (biorxiv, 2022).

Experiments:
[1] = target: T1, AgamOr53 + AgamOrco (Anopheles gambiae, UniProt A0ABK8FS74); assay: two-electrode voltage clamp, Xenopus oocytes; type: cell-based
T1 sequence (A0ABK8FS74 1-384): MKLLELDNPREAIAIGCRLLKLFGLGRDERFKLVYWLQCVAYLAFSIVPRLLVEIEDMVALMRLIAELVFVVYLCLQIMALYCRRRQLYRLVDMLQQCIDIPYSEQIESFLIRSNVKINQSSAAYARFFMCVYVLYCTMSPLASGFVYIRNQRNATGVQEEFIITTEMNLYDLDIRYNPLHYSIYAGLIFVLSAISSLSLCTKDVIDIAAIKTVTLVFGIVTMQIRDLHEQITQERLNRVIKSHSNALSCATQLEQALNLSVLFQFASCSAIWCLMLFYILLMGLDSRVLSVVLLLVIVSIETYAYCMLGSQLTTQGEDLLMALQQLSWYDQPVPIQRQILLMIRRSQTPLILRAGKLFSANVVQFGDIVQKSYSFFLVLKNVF
T1 sequence (Q7QCC7 1-478 partner): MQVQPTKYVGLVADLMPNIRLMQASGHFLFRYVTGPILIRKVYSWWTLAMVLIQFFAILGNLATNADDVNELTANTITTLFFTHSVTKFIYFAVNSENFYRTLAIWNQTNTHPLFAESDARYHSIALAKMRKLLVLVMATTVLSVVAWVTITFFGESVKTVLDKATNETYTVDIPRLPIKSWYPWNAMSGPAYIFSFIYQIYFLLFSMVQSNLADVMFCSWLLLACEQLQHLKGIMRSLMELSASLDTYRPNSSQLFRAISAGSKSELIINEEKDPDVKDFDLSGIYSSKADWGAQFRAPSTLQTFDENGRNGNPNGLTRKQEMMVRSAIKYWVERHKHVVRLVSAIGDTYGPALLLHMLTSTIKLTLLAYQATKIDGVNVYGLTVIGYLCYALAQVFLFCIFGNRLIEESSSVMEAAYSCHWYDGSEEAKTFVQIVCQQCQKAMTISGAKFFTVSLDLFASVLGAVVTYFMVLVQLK

[2] = target: T2, AgamOr29 + AgamOrco (Anopheles gambiae, UniProt A0A1S4H074); assay: two-electrode voltage clamp, Xenopus oocytes; type: cell-based
T2 sequence (A0A1S4H074 1-384): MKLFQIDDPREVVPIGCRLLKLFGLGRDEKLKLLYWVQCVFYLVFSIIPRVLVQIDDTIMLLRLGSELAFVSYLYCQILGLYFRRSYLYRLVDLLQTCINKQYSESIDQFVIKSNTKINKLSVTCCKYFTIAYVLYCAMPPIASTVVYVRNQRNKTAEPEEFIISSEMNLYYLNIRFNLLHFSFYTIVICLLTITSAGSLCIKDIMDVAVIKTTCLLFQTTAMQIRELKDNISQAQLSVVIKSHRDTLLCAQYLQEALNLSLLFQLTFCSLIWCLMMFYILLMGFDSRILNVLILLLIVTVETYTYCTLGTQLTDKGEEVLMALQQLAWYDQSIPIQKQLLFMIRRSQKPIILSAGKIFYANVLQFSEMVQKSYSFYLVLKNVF
T2 sequence (Q7QCC7 1-478 partner): T1 sequence (Q7QCC7 1-478 partner)

EC50 [1]	EC50 [2]	Structure (SMILES)
14.9 µM	14.7 µM	C=C[C@](C)(O)CCC=C(C)C [(R)-(–)-linalool]
19.1 µM	7.1 µM	C=C[C@@](C)(O)CCC=C(C)C [(S)-(+)-linalool]
